This is an account of results in paper PMC12175168, “Refining the Amino Reactivity-Based Identification of Respiratory Sensitizers” (Chemical Research in Toxicology, 2025).

On the set-up of data set [1]: method as in our previous work. The conditions noted are these: reaction with Gly-pNA; ref our previous work; cited from earlier work.
On the set-up of data set [2]: method as in our previous work. Conditions: PPB pH 7.4, 24 h; ref our previous work; cited from earlier work.
Another data set deals with DPRA lysine peptide. Further details: method as in literature. The conditions noted are these: AAB pH 10.2, 24 h; ref literature; cited from earlier work.
The nature of data set [3]: DPRA-like chemoassay with Lys-pNA (24 h percent depletion). Conditions: 25 °C, 50-fold excess of test compound. Here is the method: (§1) In addition to the kinetic Gly-pNA chemoassay, the reactivity of the 27 compounds toward Gly-pNA and Lys-pNA was determined in terms of percentage depletions after reacting for 24 h at 25 °C employing the following DPRA-like setup: stock solutions for the test compounds were prepared by gravimetrically adding at least 3 mg of the respective compound into a glass vial (total volume 1.8 mL) and subsequent addition of 1 mL ACN. […] The stock solutions for Gly-pNA and Lys-pNA with a final concentration of 1.7 mM were prepared by dissolving the required amount in one of the three aqueous buffer solutions used for this DPRA-like chemoassay: phosphate buffer (80 mM, pH 7.4), phosphate buffer (80 mM, pH 10.2), and ammonium acetate buffer (100 mM, pH 10.2). Glass vials (1.8 mL) were used as reaction vessels.
(§2) In the final reaction mixtures, the concentration of Gly-pNA or Lys-pNA was 0.03 mM, and the test compound was 50 times in excess (1.5 mM). After incubation for 24 h at 25 °C, the free amount of either Gly-pNA or Lys-pNA was determined using the HPLC UV–vis method described for the kinetic Gly-pNA chemoassay. , The percentage depletion of Gly-pNA (D Gly) or Lys-pNA (D Lys) was determined directly from peak areas according to eq 3 Dx[%]=(Axcontrol−Ax/Axcontrol×100)withx=GlyorLys
(§3) In eq , A x and A x ^control are the peak areas of the chromatographic signal of either Gly-pNA (x = Gly) or Lys-pNA (x = Lys) at 315 nm after 24 h incubation with and without test compound, respectively.
(§4) Summary of experimental conditions of the DPRA-like setups used to determine
(§5) DGly, D Lys, and D DPRA data in Table 2 (main text).
(§6) Table S2. Overview of experimental conditions for the DPRA-like setups used to
(§7) determine 24 h percentage depletion rates for the reaction of the test compounds with
(§8) Gly-pNA, Lys-pNA, and the DPRA lysine peptide (literature data).

For data set [4] the following is noted: ref Krutz et al., Sadekar et al., Ponder et al., Karol et al., Hopkins et al.; cited from earlier work.
Data set [5] in a line: Kinetic Gly-pNA chemoassay (second-order rate constant k Gly).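 For all read-outs here: Gly-pNA depletion followed over time by chromatographic peak area, with test compound in at least tenfold excess (pseudo-first-order), added from acetonitrile stock, at least three runs.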 The conditions noted are these: reaction with Gly-pNA, nominal test compound concentration; for k Gly ± s(k Gly), second-order rate constant: phosphate buffer 80 mM, 25 °C, ≥ values are minimum reactivity.
Method: The reactivity of the 27 test compounds toward Gly-pNA was quantified in terms of the second-order reaction rate constant k Gly using our Gly-pNA chemoassay. , In brief, stock solutions of the test compound were freshly obtained every day by gravimetrically adding the required amount into a 10 mL volumetric flask, which was subsequently filled to volume with acetonitrile (ACN). The required amounts of test compounds depended on their reactivity toward Gly-pNA. […] As usual for kinetic studies, fast reacting chemicals are applied at lower concentrations than little reactive candidates. All stock solutions were stored at 25 °C in a climate chamber before first use (ca. 30 min) and for repeating an experiment (max. 6 h). Gly-pNA stock solution (1.69 mM) was obtained by dissolving 3.3 mg Gly-pNA in 10 mL phosphate buffer solution (80 mM) and could be used for several weeks if stored at 4 °C. For all chemoassay experiments, 1.8 mL glass vials were used as reaction batches, which were initially filled with 1070 μL phosphate buffer (80 mM) and 30 μL Gly-pNA stock solution. To start the reaction, 400 μL of the test compound stock solutions was added. […] The time between the start of the reaction and the first analysis was measured with an electronic time clock. All reactions were performed under pseudo-1st order conditions with the electrophile being at least ten times in excess over Gly-pNA.
For these compounds, the minimum reactivity was estimated in terms of k Gly by plotting ln (A Gly ^ t /A Gly ^0) vs reaction time t (with A Gly ^ t and A Gly ^0 being the peak areas under the chromatographic signal for Gly-pNA at time t and at the beginning of the reaction (t = 0)). Linear regression through 0 (at t = 0) and the first measurement point yields slope s (see Figure S1) which is the pseudo-1st order rate constant k Gly ^pseudo that can be converted with the initial test compound concentration in the reactions mixture (c) into k Gly according to eq . 1 kGly=kGlypseudo/c
2 Ln(AGlyt/AGly0)≈−kGly·c·t+0.5·kGly·kloss·c·t^2 Here k loss is the first order rate constant covering all processes contributing to the loss of the test compounds, except the reaction with Gly-pNA. The regression parameter of the linear part of eq (= k Gly·c) is the pseudo-1st order rate constant k Gly ^pseudo and can be converted into k Gly according to eq (see above).
Linear regression of these plots provides slope s, which is again the pseudo-1st order rate constant, k Gly ^pseudo, and can be used to calculate k Gly according to eq . All experiments to determine k Gly have been conducted at least three times.
The nature of data set [6]: DPRA-like chemoassay with Gly-pNA (24 h percent depletion). The conditions noted are these: PPB pH 7.4, 24 h, 25 °C, 50-fold excess of test compound. The protocol: as §1, §2, §3, §4, §5, §6, §7, §8
Data set [7] can be described thus: Stability assessment of test compounds in aqueous buffers (half-lives). Here is the method: To this end, the test compound was dissolved in 1 mL ACN in a glass vial. […] As reaction batches, 1.8 mL glass vials equipped with 400 μL glass inserts were used and filled with 220 μL of the respective aqueous buffer and 80 μL of the test compound stock solution. The depletion of the test compounds was recorded with the HPLC UV–vis instrument used for the kinetic Gly-pNA chemoassay. , Chromatographic separation of the reaction mixture was achieved using the gradient described for the Gly-pNA chemoassay previously , and an isocratic HPLC method (water/ACN 70:30, both with 0.1 vol % formic acid). The wavelengths used for the detection of the compound and the information on the used chromatographic method are given in the Supporting Information in Table S3.

Setting [8] is: AAB (ammonium acetate buffer) pH 10.2, 24 h.
[9] abbreviates: aqueous ammonium acetate buffer with acetonitrile, pH 10.2.
The mark [10] stands for this setting: aqueous phosphate buffer with acetonitrile, pH 10.2.

Where two headings read alike, the source gives them in different places. Marks after values point to notes of the source that are not given here. Some results are limits rather than exact numbers.

Consider `O=CCCCC=O` [G1, glutaraldehyde], for which, in data set [1], the “k Gly ± s(k Gly), second-order rate constant” value (shortened to “k Gly ± s(k Gly)”) was 17731 ± 2525 L mol^–1 min^–1 and the “log k Gly” value is reported as 4.25. Besides, the “D Gly, 24 h percent depletion of Gly-pNA” value in data set [2] is on record as 100 ^c %. Also, in the data set on DPRA lysine peptide, the “D DPRA ± s(D DPRA), depletion of the DPRA lysine peptide” value (“D DPRA ± s(D DPRA), depletion” for short) is on record as 82.8 ± 7.6%. The “D Lys ± s(D Lys), 24 h percent depletion of Lys-pNA” value in data set [3] (setting [8]) is reported as 7.2 ± 1.7%. Further, the “D Lys ± s(D Lys), 24 h percent depletion of Lys-pNA” value in data set [3] (PPB pH 10.2, 24 h) worked out at 97.9 ± 0.6%.
For `C=CC(=O)OCC` [F4, ethyl acrylate], the “Classification as potential respiratory sensitizer or non-sensitizer” value in data set [4] is “non-sensitizer”. In addition, the “D DPRA ± s(D DPRA), depletion” value in the data set on DPRA lysine peptide is 90.3 ± 6.6%. Further, in data set [5], the “k Gly ± s(k Gly)” value is listed as 0.0795 ± 0.0001 L mol^–1 min^–1. Moreover, the “D Lys ± s(D Lys), 24 h percent depletion of Lys-pNA” value in data set [3] (setting [8]) is 55.8 ± 0.4%; in data set [3] (PPB pH 10.2, 24 h) it was 67.1 ± 1.4%. The “D Gly ± s(D Gly), 24 h percent depletion of Gly-pNA” value in data set [6] came out at 14.4 ± 0.6%. The “half-lives t 1/2 ± s(t 1/2)” value in data set [7] (PPB (phosphate buffer 80 mM) pH 7.4) was “no depletion”. Moreover, the half-life in data set [7] (setting [9]) worked out at 880 ± 119 min; in data set [7] (setting [10]) it was 1350 ± 172 min.
`O=C1OC(=O)c2ccccc21` [C1, phthalic anhydride]: in data set [4], the “Classification as potential respiratory sensitizer or non-sensitizer” value is “potential respiratory sensitizer”. For the same compound, the “D DPRA ± s(D DPRA), depletion” value with DPRA lysine peptide was 69.2 ± 22.0%. Moreover, the “k Gly ± s(k Gly)” value in data set [5] was at least 22480 ± 1197 L mol^–1 min^–1. Further, the “D Lys ± s(D Lys), 24 h percent depletion of Lys-pNA” value is 22.6 ± 7.4% in data set [3] (setting [8]) and 100% in data set [3] (PPB pH 10.2, 24 h). Besides, the “D Gly ± s(D Gly), 24 h percent depletion of Gly-pNA” value in data set [6] is 100%. Also, the half-life in data set [7] (setting [9]) is under 1 min; in data set [7] (aqueous phosphate buffer with acetonitrile, pH 7.4), 89.5 ± 4.1 min; in data set [7] (setting [10]), under 1 min.
In the case of `Cc1c(N=C=O)cccc1N=C=O` [A3, 2,6-toluene diisocyanate], the “Classification as potential respiratory sensitizer or non-sensitizer” value in data set [4] is recorded as “potential respiratory sensitizer”. Further, in the data set on DPRA lysine peptide, the “D DPRA ± s(D DPRA), depletion” value was 26.5 ± 0.7%. For the same compound, in data set [5], the “k Gly ± s(k Gly)” value is listed as at least 20880 ± 695 L mol^–1 min^–1. In addition, the “log k Gly” value in data set [5] (phosphate buffer) is at least 4.32. Further, the “D Lys ± s(D Lys), 24 h percent depletion of Lys-pNA” value in data set [3] (setting [8]) amounted to 20.7 ± 1.4%; in data set [3] (PPB pH 10.2, 24 h) it was 100%. Further, in data set [6], the “D Gly ± s(D Gly), 24 h percent depletion of Gly-pNA” value is reported as 100%. For the same compound, the half-life in data set [7] (buffer, pH 7.4, half-lives t 1/2 ± s(t 1/2), PPB (phosphate buffer 80 mM) pH 7.4) is under 1 min; in data set [7] (buffer, pH 10.2, half-lives t 1/2 ± s(t 1/2), AAP (ammonium acetate buffer 100 mM) pH 10.2), under 1 min; in data set [7] (buffer, pH 10.2, half-lives t 1/2 ± s(t 1/2), PPB (phosphate buffer 80 mM) pH 10.2) it was under 1 min.

Usually half-life stands for the time needed for the level to fall by half in the phase considered. High values mean slow loss, low ones fast loss.
